Measurements from patent US12187723B2 (BRISTOL-MYERS SQUIBB COMPANY, priority 2019, dated 2025).

What was measured:
human TLR8 = target: T1, human TLR8 (Homo sapiens, UniProt Q9NR97); test: TLR8 inhibition reporter assay (HEK-Blue SEAP); format: cell-based; conditions: HEK-Blue cells overexpressing human TLR8, R848 15.9 μM, 22 hour incubation
T1 construct: host or cells: HEK-Blue cells
T1 sequence (Q9NR97 27-1041): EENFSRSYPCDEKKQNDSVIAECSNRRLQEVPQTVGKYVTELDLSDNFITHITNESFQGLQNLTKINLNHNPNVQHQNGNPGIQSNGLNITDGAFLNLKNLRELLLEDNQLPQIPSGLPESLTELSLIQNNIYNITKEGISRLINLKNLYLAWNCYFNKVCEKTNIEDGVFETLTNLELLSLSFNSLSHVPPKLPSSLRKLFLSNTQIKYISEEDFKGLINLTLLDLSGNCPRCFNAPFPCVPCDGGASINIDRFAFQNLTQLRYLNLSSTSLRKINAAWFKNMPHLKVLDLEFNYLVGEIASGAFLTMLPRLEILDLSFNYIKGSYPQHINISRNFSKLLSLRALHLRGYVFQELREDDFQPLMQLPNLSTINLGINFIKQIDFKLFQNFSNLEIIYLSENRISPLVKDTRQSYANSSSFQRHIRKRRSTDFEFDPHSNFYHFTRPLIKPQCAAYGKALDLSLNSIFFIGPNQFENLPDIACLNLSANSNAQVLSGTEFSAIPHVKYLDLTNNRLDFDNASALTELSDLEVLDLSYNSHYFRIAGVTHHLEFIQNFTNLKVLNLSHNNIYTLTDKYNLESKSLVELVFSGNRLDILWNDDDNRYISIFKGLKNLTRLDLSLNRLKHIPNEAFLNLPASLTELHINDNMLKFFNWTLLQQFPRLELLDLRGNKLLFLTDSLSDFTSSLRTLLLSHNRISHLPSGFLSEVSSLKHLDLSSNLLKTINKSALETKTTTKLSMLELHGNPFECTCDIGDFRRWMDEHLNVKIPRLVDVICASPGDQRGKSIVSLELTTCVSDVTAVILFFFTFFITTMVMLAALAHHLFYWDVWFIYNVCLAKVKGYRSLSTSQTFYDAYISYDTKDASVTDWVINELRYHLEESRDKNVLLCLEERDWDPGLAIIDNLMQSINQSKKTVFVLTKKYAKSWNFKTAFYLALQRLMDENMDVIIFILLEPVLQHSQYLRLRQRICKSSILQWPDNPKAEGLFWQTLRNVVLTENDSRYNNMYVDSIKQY
Method: (§1) TLR7/8/9 Inhibition Reporter Assays
(§2) HEK-Blue™-cells (Invivogen) overexpressing human TLR7, TLR8 or TLR9 receptors were used for screening inhibitors of these receptors using an inducible SEAP (secreted embryonic alkaline phosphatase) reporter gene under the control of the IFN-β minimal promoter fused to five NF-κB and AP-1-binding sites. Briefly, cells are seeded into Greiner 384 well plates (15000 cells per well for TLR7, 20,000 for TLR8 and 25,000 for TLR9) and then treated with test compounds in DMSO to yield a final dose response concentration range of 0.05 nM-50 μM. After a 30 minute compound pre-treatment at room temperature, the cells are then stimulated with a TLR7 ligand (gardiquimod at a final concentration of 7.5 μM), TLR8 ligand (R848 at a final concentration of 15.9 μM) or TLR9 ligand (ODN2006 at a final concentration of 5 nM) to activate NF-κB and AP-1 which induce the production of SEAP. After a 22 hour incubation at 37° C., 5% CO2, SEAP levels are determined with the addition of HEK-Blue™ Detection reagent (Invivogen), a cell culture medium that allows for detection of SEAP, according to manufacturer's specifications. The percent inhibition is determined as the % reduction in the HEK-Blue signal present in wells treated with agonist plus DMSO alone compared to wells treated with a known inhibitor.

human TLR9 = target: T2, human TLR9 (Homo sapiens, UniProt Q9NR96); test: TLR9 inhibition reporter assay (HEK-Blue SEAP); format: cell-based; conditions: HEK-Blue cells overexpressing human TLR9, ODN2006 5 nM, 22 hour incubation
T2 construct: host or cells: HEK-Blue cells
T2 sequence (Q9NR96 26-1032): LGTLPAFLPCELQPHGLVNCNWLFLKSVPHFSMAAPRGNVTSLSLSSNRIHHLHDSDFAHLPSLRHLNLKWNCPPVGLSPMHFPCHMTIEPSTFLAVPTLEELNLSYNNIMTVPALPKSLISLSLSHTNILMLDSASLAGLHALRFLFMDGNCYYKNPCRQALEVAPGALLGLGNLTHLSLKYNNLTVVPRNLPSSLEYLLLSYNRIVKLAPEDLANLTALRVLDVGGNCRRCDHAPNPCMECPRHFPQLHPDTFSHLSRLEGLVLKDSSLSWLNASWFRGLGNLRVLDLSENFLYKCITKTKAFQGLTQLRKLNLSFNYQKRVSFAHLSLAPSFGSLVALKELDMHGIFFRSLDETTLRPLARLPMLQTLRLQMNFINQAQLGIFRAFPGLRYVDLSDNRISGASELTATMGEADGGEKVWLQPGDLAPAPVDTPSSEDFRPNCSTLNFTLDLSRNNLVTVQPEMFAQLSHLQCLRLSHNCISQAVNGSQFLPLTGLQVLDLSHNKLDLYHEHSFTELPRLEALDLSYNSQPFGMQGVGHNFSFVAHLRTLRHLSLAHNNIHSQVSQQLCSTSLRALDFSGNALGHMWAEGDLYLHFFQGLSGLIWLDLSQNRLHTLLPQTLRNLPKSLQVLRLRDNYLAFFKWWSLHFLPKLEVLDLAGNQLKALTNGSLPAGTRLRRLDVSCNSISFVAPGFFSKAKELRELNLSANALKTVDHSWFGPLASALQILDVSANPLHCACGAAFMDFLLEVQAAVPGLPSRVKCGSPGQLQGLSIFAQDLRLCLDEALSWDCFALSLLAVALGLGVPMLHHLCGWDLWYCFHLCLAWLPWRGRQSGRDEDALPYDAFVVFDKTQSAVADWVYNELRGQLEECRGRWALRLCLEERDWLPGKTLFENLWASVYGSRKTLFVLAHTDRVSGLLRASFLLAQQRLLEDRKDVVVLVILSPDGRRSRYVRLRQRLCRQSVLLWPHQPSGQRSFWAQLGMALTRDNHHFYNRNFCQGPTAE
Method: as §1, §2

Cc1c(-c2cc3[nH]c(=O)n([C@@H]4CCCN(C5COC5)C4)c3cc2C(C)C)cn2ncnc2c1C [Example 146, (R)-5-(7,8-dimethyl-[1,2,4]triazolo[1,5-a]pyridin-6-yl)-6-isopropyl-1-(1-(oxetan-3-yl)piperidin-3-yl)-1,3-dihydro-2H-benzo[d]imidazol-2-one]
IC50 (human TLR8): 0.00605 µM | IC50 (human TLR9): > 50 µM

COc1cc(-c2cc3[nH]c(=O)n(C4CCN(C(C)C)CC4)c3cc2C(C)C)cn2ncnc12 [Example 163, 6-isopropyl-1-(1-isopropylpiperidin-4-yl)-5-(8-methoxy-[1,2,4]triazolo[1,5-a]pyridin-6-yl)-1,3-dihydro-2H-benzo[d]imidazol-2-one]
IC50 (human TLR8): 0.00758 µM | IC50 (human TLR9): 15.3 µM

COc1cc(-c2cc3[nH]c(=O)n([C@@H]4CCCN(C)C4)c3cc2C(F)(F)F)cn2ncnc12 [Example 114, (R)-5-(8-methoxy-[1,2,4]triazolo[1,5-a]pyridin-6-yl)-1-(1-methylpiperidin-3-yl)-6-(trifluoromethyl)-1,3-dihydro-2H-benzo[d]imidazol-2-one]
IC50 (human TLR8): 0.00029 µM | IC50 (human TLR9): 0.618 µM

COc1cc(-c2cc3[nH]c(=O)n(C4CCN(CC5CCOCC5)CC4)c3cc2C(C)C)cn2ncnc12 [Example 159, 6-isopropyl-5-(8-methoxy-[1,2,4]triazolo[1,5-a]pyridin-6-yl)-1-(1-((tetrahydro-2H-pyran-4-yl)methyl)piperidin-4-yl)-1,3-dihydro-2H-benzo[d]imidazol-2-one]
IC50 (human TLR8): 0.00452 µM | IC50 (human TLR9): 7.25 µM

CCN1CCC(n2c(=O)[nH]c3cc(-c4cc(C)c5ncnn5c4)c(C)cc32)CC1 [Example 6, 1-(1-ethylpiperidin-4-yl)-6-methyl-5-(8-methyl-[1,2,4]triazolo[1,5-a]pyridin-6-yl)-1,3-dihydro-2H-benzo[d]imidazol-2-one]
IC50 (human TLR8): 0.0463 µM | IC50 (human TLR9): 0.871 µM

Cc1cc(-c2cc(C)c3ncnn3c2)cc2[nH]c(=O)n(C3CCN(C(C)C)CC3)c12 [Example 107, 1-(1-isopropylpiperidin-4-yl)-7-methyl-5-(8-methyl-[1,2,4]triazolo[1,5-a]pyridin-6-yl)-1,3-dihydro-2H-benzo[d]imidazol-2-one]
IC50 (human TLR8): 0.249 µM | IC50 (human TLR9): 2.99 µM

CCCN1CCC[C@@H](n2c(=O)[nH]c3cc(-c4cc(OC)c5ncnn5c4)c(C(C)C)cc32)C1 [Example 134, (R)-6-isopropyl-5-(8-methoxy-[1,2,4]triazolo[1,5-a]pyridin-6-yl)-1-(1-propylpiperidin-3-yl)-1,3-dihydro-2H-benzo[d]imidazol-2-one]
IC50 (human TLR8): 0.00593 µM | IC50 (human TLR9): 9.33 µM

CCC(CC)CN1CCC[C@@H](n2c(=O)[nH]c3cc(-c4cc(OC)c5ncnn5c4)c(C(C)C)cc32)C1 [Example 148, (R)-1-(1-(2-ethylbutyl)piperidin-3-yl)-6-isopropyl-5-(8-methoxy-[1,2,4]triazolo[1,5-a]pyridin-6-yl)-1,3-dihydro-2H-benzo[d]imidazol-2-one]
IC50 (human TLR8): 0.00109 µM | IC50 (human TLR9): 9.61 µM

Cc1cc2c(cc1-c1cc(C)c3ncnn3c1)[nH]c(=O)n2[C@@H]1CCCN(CC#N)C1 [Example 96, (R)-2-(3-(6-methyl-5-(8-methyl-[1,2,4]triazolo[1,5-a]pyridin-6-yl)-2-oxo-2,3-dihydro-1H-benzo[d]imidazol-1-yl)piperidin-1-yl)acetonitrile]
IC50 (human TLR8): 0.0453 µM | IC50 (human TLR9): 8.64 µM

CCc1cc2c(cc1-c1cc(OC)c3ncnn3c1)[nH]c(=O)n2[C@H]1CC[C@@H](NC2CCOCC2)CC1 [Example 166, 6-ethyl-5-(8-methoxy-[1,2,4]triazolo[1,5-a]pyridin-6-yl)-1-((1s,4s)-4-((tetrahydro-2H-pyran-4-yl)amino)cyclohexyl)-1,3-dihydro-2H-benzo[d]imidazol-2-one]
IC50 (human TLR8): 0.00054 µM | IC50 (human TLR9): 14.9 µM

CCN1CCC[C@@H](n2c(=O)[nH]c3cc(-c4cc(OC)c5ncnn5c4)c(C(C)C)cc32)C1 (single isomer, unassigned) [Example 144]
IC50 (human TLR8): 0.00502 µM | IC50 (human TLR9): 14.1 µM

COCCN1CCC[C@@H](n2c(=O)[nH]c3cc(-c4cc(OC)c5ncnn5c4)c(C(F)(F)F)cc32)C1 [Example 118, (R)-5-(8-methoxy-[1,2,4]triazolo[1,5-a]pyridin-6-yl)-1-(1-(2-methoxyethyl)piperidin-3-yl)-6-(trifluoromethyl)-1,3-dihydro-2H-benzo[d]imidazol-2-one]
IC50 (human TLR8): 0.0227 µM | IC50 (human TLR9): 18.1 µM

COc1cc(-c2cc3[nH]c(=O)n([C@H]4CCCN(C5CCC5)C4)c3cc2C(C)C)cn2ncnc12 [Example 122, (S)-1-(1-cyclobutylpiperidin-3-yl)-6-isopropyl-5-(8-methoxy-[1,2,4]triazolo[1,5-a]pyridin-6-yl)-1,3-dihydro-2H-benzo[d]imidazol-2-one]
IC50 (human TLR8): 0.0015 µM | IC50 (human TLR9): 12.7 µM

COc1cc(-c2cc3[nH]c(=O)n([C@@H]4CCCN(CC(C)(C)C)C4)c3cc2C(F)(F)F)cn2ncnc12 [Example 116, (R)-5-(8-methoxy-[1,2,4]triazolo[1,5-a]pyridin-6-yl)-1-(1-neopentylpiperidin-3-yl)-6-(trifluoromethyl)-1,3-dihydro-2H-benzo[d]imidazol-2-one]
IC50 (human TLR8): 0.0578 µM | IC50 (human TLR9): 34.2 µM

Cc1cc2c(cc1-c1cc(C)c3ncnn3c1)[nH]c(=O)n2[C@@H]1CCCN(CC(N)=O)C1 [Example 94, (R)-2-(3-(6-methyl-5-(8-methyl-[1,2,4]triazolo[1,5-a]pyridin-6-yl)-2-oxo-2,3-dihydro-1H-benzo[d]imidazol-1-yl)piperidin-1-yl)acetamide]
IC50 (human TLR8): 0.339 µM | IC50 (human TLR9): > 50 µM

Cc1c(-c2cc3[nH]c(=O)n([C@@H]4CCCN(C)C4)c3cc2C(C)C)cn2ncnc2c1C [Example 147, (R)-5-(7,8-dimethyl-[1,2,4]triazolo[1,5-a]pyridin-6-yl)-6-isopropyl-1-(1-methylpiperidin-3-yl)-1,3-dihydro-2H-benzo[d]imidazol-2-one]
IC50 (human TLR8): 0.0235 µM | IC50 (human TLR9): > 50 µM

Cc1cc(-c2ccc3c(c2)[nH]c(=O)n3C2CCN(C(C)C)CC2)cn2ncnc12 [Example 5, 1-(1-isopropylpiperidin-4-yl)-5-(8-methyl-[1,2,4]triazolo[1,5-a]pyridin-6-yl)-1,3-dihydro-2H-benzo[d]imidazol-2-one]
IC50 (human TLR8): > 3.13 µM | IC50 (human TLR9): 2.75 µM
